Laboratory results from patent publication US20260008818A1, “CYCLIC PEPTIDE OR SALT THEREOF, AND USES THEREOF” (FUJIFILM Corporation, priority 2023, published 2026).
Bridge positions count the residues as written; N and C are the ends. Ends that are not written are not given here. COCH2 = acetyl group that carries the bridge

System: Recombinant Human FGFR1 alpha (IIIc) Fc Chimera Protein
Assay: Binding affinity of enzymatically synthesized cyclic peptide to FGFR by ELISA
Details: luminescence signal at reaction concentration 10 nmol/L, SEQ ID NO: 39 standardized to 1, enzyme synthesis product
Method in brief: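 Graded A–D from luminescence at 10 nmol/L peptide, expressed relative to SEQ ID NO: 39 after subtracting wells lacking receptor. Read-out used anti-Myc antibody (2 h, RT) with chemiluminescent substrate, following 3 h RT binding of peptide to immobilized FGFR1α(IIIc)-Fc, 5 ng per well.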

Row | Substance | Evaluation result of binding affinity to FGFR
1 | 262 (FCYQRLYFQGHIAPYWFVK(COCH2)D; thioether 2-19 (inferred)) [compound 262] | B (0.5 or more and less than 0.7)
2 | 62 (HCSYERLQFHGHAAPFRVK(COCH2)V; thioether 2-19 (inferred)) [compound 62] | A (0.7 or more)
3 | 199 (HCSYERLQFHGHEAPFSVK(COCH2)V; thioether 2-19 via Ac) [compound 199] | B (0.5 or more and less than 0.7)
4 | 342 (NCIPFWWQQHWWQYPVRVVK(COCH2)T; thioether 2-20) [compound 342] | C (0.1 or more and less than 0.5)
5 | 198 (HCSYERLQFHGHEAPFQVK(COCH2)V; thioether 2-19 via Ac) [compound 198] | B (0.5 or more and less than 0.7)
6 | 218 (HCSYERLQFHGHEAPFRVK(COCH2)S; thioether 2-19 via Ac; not fully specified) [compound 218] | A (0.7 or more)
7 | 317 (HCTWERLRFLGHIAPFWVK(COCH2)R; thioether 2-19 (inferred)) [compound 317] | C (0.1 or more and less than 0.5)
8 | 65 (HCSYERLQFHGHEAPFRAK(COCH2)V; thioether 2-19 (inferred)) [compound 65] | A (0.7 or more)
9 | 267 (ACRWAQLQFLSWGAPFLVK(COCH2)T; thioether 2-19 (inferred)) [compound 267] | C (0.1 or more and less than 0.5)
10 | 368 (ECKVHLHPWGAPFWIK(COCH2)S; thioether 2-16) [compound 368] | C (0.1 or more and less than 0.5)
11 | 328 (HCSYERLIFHGHIAPFWVK(COCH2)V; thioether 2-19 (inferred)) [compound 328] | A (0.7 or more)
12 | 164 (HCSYERLQFLGHEAPFRVK(COCH2)V; thioether 2-19 (inferred)) [compound 164] | A (0.7 or more)
13 | 230 (HK(COCH2)QWERLIFLGHIAPFWVCR; thioether 2-19 (inferred)) [compound 230] | B (0.5 or more and less than 0.7)
14 | 54 (HCYERLQFHGHEAPFRVK(COCH2)V; thioether 2-18 (inferred)) [compound 54] | A (0.7 or more)
15 | 278 (SCIVPLYIYGWRAPYWLK(COCH2)V; thioether 2-18 (inferred)) [compound 278] | C (0.1 or more and less than 0.5)
16 | 87 (HCFYERLQFHGHEAPFRVKV; not fully specified; Description of Artificial Sequence: Cyclic peptide) [compound 87] | A (0.7 or more)
17 | 324 (HCTWERLIFLGHIAPFWVK(COCH2)V; thioether 2-19 (inferred)) [compound 324] | B (0.5 or more and less than 0.7)
18 | 336 (HCTYERLIFLGHIAPFWVK(COCH2)V; thioether 2-19 (inferred)) [compound 336] | B (0.5 or more and less than 0.7)
19 | 158 (HCSYERLQLHGHEAPFRVK(COCH2)V; thioether 2-19 (inferred)) [compound 158] | B (0.5 or more and less than 0.7)
20 | 80 (ECSYERLQFHGHEAPFRVKV; not fully specified; Description of Artificial Sequence: Cyclic peptide) [compound 80] | A (0.7 or more)
21 | 349 (HCLEQLVYGGDTAPFWIVVFK(COCH2)D; thioether 2-21) [compound 349] | C (0.1 or more and less than 0.5)
22 | 245 (WCQYVYLSHVAPFLVRK(COCH2)E; thioether 2-17 (inferred)) [compound 245] | C (0.1 or more and less than 0.5)
23 | 209 (HCSYERLQFHGHEAPFRHK(COCH2)V; thioether 2-19 via Ac; not fully specified) [compound 209] | B (0.5 or more and less than 0.7)
24 | 333 (HCVYERLIFHGHIAPFWVK(COCH2)V; thioether 2-19 (inferred)) [compound 333] | A (0.7 or more)
25 | 300 (HCSYERMQFHGHEAPFRVK(COCH2)V; thioether 2-19 (inferred)) [compound 300] | A (0.7 or more)
26 | 142 (HCSYERFQFHGHEAPFRVK(COCH2)V; thioether 2-19 (inferred)) [compound 142] | C (0.1 or more and less than 0.5)

Row | Substance | Evaluation result of binding affinity to FGFR
27 | 190 (HCSYERLQFHGHHAPFRVK(COCH2)V; thioether 2-19 via Ac) [compound 190] | A (0.7 or more)
28 | 235 (HK(COCH2)TWERLIFRGHIAPFWVCR; thioether 2-19 (inferred)) [compound 235] | A (0.7 or more)
29 | 251 (DCIWRVTISGHLAPFWFK(COCH2)Y; thioether 2-18 (inferred)) [compound 251] | B (0.5 or more and less than 0.7)
30 | 139 (HCSYEQLQFHGHEAPFRVK(COCH2)V; thioether 2-19 (inferred)) [compound 139] | B (0.5 or more and less than 0.7)
31 | 352 (ICINRLSQGTHFAPFWLVEYK(COCH2)N; thioether 2-21) [compound 352] | B (0.5 or more and less than 0.7)
32 | 73 (YCSYERLQFHGHEAPFRVK(COCH2)V; thioether 2-19 (inferred)) [compound 73] | A (0.7 or more)
33 | 272 (WCHIAPFLYHDGIQWGHLK(COCH2)V; thioether 2-19 (inferred)) [compound 272] | B (0.5 or more and less than 0.7)
34 | 115 (HCSYERLQFHGHEANFRVK(COCH2)V; thioether 2-19 (inferred)) [compound 115] | B (0.5 or more and less than 0.7)
35 | 103 (HCSTERLQFHGHEAPFRVK(COCH2)V; thioether 2-19 (inferred)) [compound 103] | A (0.7 or more)
36 | 175 (HCSYERLQFRGHEAPFRVK(COCH2)V; thioether 2-19 (inferred)) [compound 175] | A (0.7 or more)
37 | 120 (HCSYGRLQFHGHEAPFRVK(COCH2)V; thioether 2-19 (inferred)) [compound 120] | B (0.5 or more and less than 0.7)
38 | 358 (NCWVQWFLSGHVVPFLVSLK(COCH2)S; thioether 2-20) [compound 358] | C (0.1 or more and less than 0.5)
39 | 297 (HCSMERLQFHGHEAPFRVK(COCH2)V; thioether 2-19 (inferred)) [compound 297] | C (0.1 or more and less than 0.5)
40 | 188 (HCSYERLQFHGHDAPFRVK(COCH2)V; thioether 2-19 via Ac) [compound 188] | A (0.7 or more)
41 | 270 (QCYVQLYVWGHPAPFYWDK(COCH2)T; thioether 2-19 (inferred)) [compound 270] | C (0.1 or more and less than 0.5)
42 | 186 (HCSYERLQFHGHSAPFRVK(COCH2)V; thioether 2-19 via Ac) [compound 186] | A (0.7 or more)
43 | 180 (HCSYERLQFHGHVAPFRVK(COCH2)V; thioether 2-19 via Ac) [compound 180] | A (0.7 or more)
44 | 319 (HCTWERLIFQGHIAPFWVK(COCH2)R; thioether 2-19 (inferred)) [compound 319] | C (0.1 or more and less than 0.5)
45 | 210 (HCSYERLQFHGHEAPFRVK(COCH2)G; thioether 2-19 via Ac; not fully specified) [compound 210] | B (0.5 or more and less than 0.7)
46 | 168 (HCSYERLQFYGHEAPFRVK(COCH2)V; thioether 2-19 (inferred)) [compound 168] | A (0.7 or more)
47 | 244 (NCWGWAYPIPFRK(COCH2)V; thioether 2-13 (inferred)) [compound 244] | C (0.1 or more and less than 0.5)
48 | 355 (RCYFSRQGFWPFTYKLPFWVK(COCH2)H; thioether 2-21) [compound 355] | C (0.1 or more and less than 0.5)
49 | 314 (HCTFERLIFLGHIAPFWVK(COCH2)R; thioether 2-19 (inferred)) [compound 314] | C (0.1 or more and less than 0.5)
50 | 173 (HCSYERLQFTGHEAPFRVK(COCH2)V; thioether 2-19 (inferred)) [compound 173] | C (0.1 or more and less than 0.5)
51 | 223 (HCSYERLQFHGHEAPFRVK(COCH2)H; thioether 2-19 (inferred)) [compound 223] | A (0.7 or more)
52 | 215 (HCSYERLQFHGHEAPFRVK(COCH2)W; thioether 2-19 via Ac; not fully specified) [compound 215] | B (0.5 or more and less than 0.7)
